What all share (type): cell-based, human
The nature of experiment [1]: Cardiomyocyte differentiation, correlative immunostaining (FIG. 31). To be noted: MTX Treated; vs H1 positive and untreated negative control. As for the experimental part:
(§1) MTX/PTX treated and SSEA4 positive cells were maintained on Matrigel-coated 6-well plates in mTeSR1 medium. To induce differentiation, cells with EB-like morphology were dissociated with Accutase (Invitrogen) at 37° C. for 5 minutes and then single cell suspension was seeded onto a Matrigel-coated cell-culture dish at 100,000 cell/cm^2 in mTeSR1 supplemented with 5 μM ROCK inhibitor (Y-27632) for 24 hours. The cells then were cultured in mTeSR1 medium, which was changed daily. Next, 8 μl of 36 mM CHIR99021 were added into 24 ml RPMI/B27-insulin medium to make 12 μM CHIR99021 RPMI/B27-insulin medium and 2-ml of this were added to each well after the old mTeSR1 medium was removed. Exactly 24 hours after adding CHIR, the medium was replaced with 2 ml room temperature RPMI/B27-insulin. The plate was put back into the 37° C., 5% CO2 incubator. 72 hours post addition of CHIR99021, 1 ml medium from each well was removed and the remaining 1-ml was supplemented with 1-ml RPMI/B27-insulin with 5 μM IWP2 (WNT pathway inhibitor). After 48 hours, the medium was replaced with fresh RPMI/B27-insulin and this was incubated at 37° C., 5% CO2 incubator. After this, every 2-days, the old medium was removed from each well of the 12-well plate and 2 ml/well room temperature RPMI/B27 medium was added and incubated at 37° C., 5% CO2. […]

Another experiment concerns 293T cells. The experiment is described as above. The conditions noted are these: MTX Treated; vs H1 positive and untreated negative control. How it is done:
as §1

Experiment [2] concerns Sox2 and Oct4 (stem cell markers). The experiment can be described thus: qRT-PCR relative transcript levels of stem cell markers (FIG. 21A). The conditions noted are these: cell line not given, vs control cells. How it is done: To validate microarray results, quantitative 2-step RT-PCR was performed. One microgram of total RNA was reverse transcribed to first-strand cDNA with the Qiagen cDNA Synthesis Kit (Qiagen), and this cDNA was subsequently used as a template for quantitative PCR with gene-specific primers. The ubiquitous β-actin gene served as a control for constitutive gene expression. The quantitative RT-PCR (qRT-PCR) reactions were performed using Power Sybr Green PCR Master Mix (Thermo Fisher Scientific) on a CFX96 Touch Real-Time PCR Detection System (Bio-Rad, Hercules, CA, USA). Relative expression levels (2^−ΔCt) were calculated according to the Livak and Schmittgen method (40). Expression levels of each gene were compared with the expression level of actin.
On the technique in general: Quantitative PCR measures a nucleic acid by following its amplification.

These results are taken from US20250171744A1, “METHODS OF REPROGRAMMING SOMATIC CELLS AND MATERIALS RELATED THERETO” (CITY OF HOPE, priority 2019, published 2025).

For the molecule `CN(Cc1cnc2nc(N)nc(N)c2n1)c1ccc(C(=O)N[C@@H](CCC(=O)O)C(=O)O)cc1` [MTX, methotrexate], the “cardiac muscle cells in the differentiation medium” value in experiment [1] was “had cardiac muscle cells”. In the experiment with 293T cells, the “cardiac muscle cells in the differentiation medium” value is reported as “had cardiac muscle cells”. In experiment [2], the “relative transcripts level of Oct4” value is “significantly higher” and the “relative transcripts level of Sox2” value is recorded as “significantly higher”.
